Laboratory results from patent US20240376138A1, “Crystal Forms, Preparation Method And Application Of Aryl Phosphine Oxide Compound” (Chengdu Di'Ao Jiuhong Pharmaceutical Factory, priority 2021, published 2024).
Like-named read-outs stand apart in the source and are kept apart here.

Key:
Solubility test = format: physicochemical; conditions: Solution with pH = 6.8, 25° C.±2° C.
[1] = target: Ba/F3 cells expressing EGFR-C797S/Del19 (Homo sapiens, UniProt P00533, C797S, cells depend on it, form not given); test: Cell anti-proliferation experiment 1, BaF3 cells expressing EGFR mutation (CellTiter-Glo); format: cell-based; conditions: 3 days, CTG, read-out: EGFR-C797S-Del19 IC50
[2] = target: Ba/F3 cells expressing EGFR-C797S/T790M/L858R (Homo sapiens, UniProt P00533, T790M/C797S/L858R, cells depend on it); test: as above; format: cell-based; conditions: read-out: EGFR-C797S/T790M/L858R IC50
Experimental: (§6) Test purpose: to detect the effect of the test compounds on the proliferation of cell lines containing EGFR mutations in BaF3 cells • 2. […] Cell information: Cell lines containing EGFR mutations in BaF3 were from WuXiAppTec: • BaF3-cell lines expressing EGFR mutation • EGFR-T790M/Del19 • EGFR-C797S/Del19 • EGFR-T790M/L858R • EGFR-C797S/L858R • EGFR-C797S/T790M/L858R • EGFR-C797S/T790M/Del19 • EGFR-WT wild-type cell lines • 2.2. Test method • Day 0: Cells were seeded in a plate. • a. An ultraviolet lamp of a biological safety cabinet was turned on and countdown was started for 30 minutes. • b. A medium was preheated in a 37° C. water bath. • c. After the ultraviolet irradiation was finished, the biological safety cabinet was opened. The pre-heated medium, PBS, and the like, were wiped with alcohol and placed in the biological safety cabinet. • d. The cells were removed from an incubator, blown to a uniform cell suspension in the biological safety cabinet and counted. • e. Based on the cell counting results, the cell suspension was adjusted to a density of 3,000 cells per well and 50 microliters per well, and seeded in 384-well plates. • f. The cells after seeding were incubated in a 5% CO2 incubator at 37° C. for 3 hours. • g. Compounds were added to the cell plates using Tecan (liquid workstation). • Day 3: the cell plate added with the compounds and CTG (CellTiter-Glo chemiluminescence cell activity assay reagent) were equilibrated at room temperature, 25 μl of CTG was added to each well, centrifuged at 1,000 rpm for 1 minute, and shaken for 1-2 minutes. And centrifuging for 1 minute at 1,000 rpm again, the cell plates were allowed to settle for 10 minutes to detect a signal value in Envision. The IC50 of each compound was calculated by computer fitting with XL-Fit analysis software (the IC50 of the compound on the cell activity inhibition could be obtained by reading the concentrations of the corresponding compounds at 500 inhibition rate). Inhibition rate % C (reading value of the control group without drug−reading value of the sample)/reading value of the control group without drug×100. • 3.

[3] = tested on: PC9 cells expressing EGFR-C797S/T790M/Del19; test: Cell anti-proliferation experiment 2, PC9 cells (SRB); format: cell-based; conditions: Homo sapiens, PC-9, 72 h, read-out: EGFR-C797S/T790M/Del19 GI50
Experimental: (§1) • 1. […] Test information: • 2.1. Cell information: PC9 cells carried EGFR Del19 mutation, and the rest of mutant cells were constructed from PC9 cells according to the conventional stable cell strain construction method. • PC9-cell lines expressing EGFR mutation • EGFR-Del19 • EGFR-T790M/Del19 • EGFR-C797S/T790M/Del19 • 2.2. Test method:
(§2) The test compounds were diluted by 5 times each time with an appropriate concentration as an initial concentration of the test, and totally diluted into 6 concentration gradients. […] SRB (Sulforhodamine B) detection method was used, and the optical density value of each well was read by a microplate reader at 490 nm wavelength.
(§3) The optical density of the cells at the drug action of 0 was set as a Tz value representing the value of the cells at the time that the drug was added. The optical density value of the cells after the solvent control DMSO acted for 72 hours was set as a C value. The optical density of the cells on which the test compounds acted for 72 hours was set as a Ti value. The response of the cells to the drug was calculated according to a method proposed by the U.S. NIH-NCI (National Institutes of Health-National Institute of Cancer): When Ti is more than or equal to Tz, the value was [(Ti−Tz)/(C−Tz)]×100; and when Ti is less than Tz, the value was [(Ti−Tz)/Tz]×100.

[4] = tested on: PC9 cells expressing EGFR-T790M/Del19; test: as above; format: cell-based; conditions: Homo sapiens, PC-9, 72 h, read-out: EGFR-T790M/Del19 GI50
Experimental: as §1, §2, §3

[5] = tested on: PC9 cells expressing EGFR-Del19; test: as above; format: cell-based; conditions: Homo sapiens, PC-9, 72 h, read-out: EGFR-Del 19 GI50
Experimental: as §1, §2, §3

[6] = target: Ba/F3 cells expressing EGFR-T790M/L858R (Homo sapiens, UniProt P00533, T790M/L858R, cells depend on it); test: Cell anti-proliferation experiment 1, BaF3 cells expressing EGFR mutation (CellTiter-Glo); format: cell-based; conditions: 3 days, CTG, read-out: EGFR-T790M/L858R IC50
Experimental: (§7) Test purpose: to detect the effect of the test compounds on the proliferation of cell lines containing EGFR mutations in BaF3 cells • 2. Test information: • 2.1. Cell information: Cell lines containing EGFR mutations in BaF3 were from WuXiAppTec: • BaF3-cell lines expressing EGFR mutation • EGFR-T790M/Del19 • EGFR-C797S/Del19 • EGFR-T790M/L858R • EGFR-C797S/L858R • EGFR-C797S/T790M/L858R • EGFR-C797S/T790M/Del19 • EGFR-WT wild-type cell lines • 2.2. Test method • Day 0: Cells were seeded in a plate. • a. An ultraviolet lamp of a biological safety cabinet was turned on and countdown was started for 30 minutes. • b. A medium was preheated in a 37° C. water bath. • c. After the ultraviolet irradiation was finished, the biological safety cabinet was opened. […] The cells were removed from an incubator, blown to a uniform cell suspension in the biological safety cabinet and counted. • e. […] The IC50 of each compound was calculated by computer fitting with XL-Fit analysis software (the IC50 of the compound on the cell activity inhibition could be obtained by reading the concentrations of the corresponding compounds at 500 inhibition rate). Inhibition rate % C (reading value of the control group without drug−reading value of the sample)/reading value of the control group without drug×100. • 3.

[7] = target: T1, BaF3 cells expressing EML-4-ALK-L1196M (Homo sapiens, UniProt Q9UM73, L1196M, cells depend on it); test: Cell anti-proliferation experiment 3, BaF3 cells with ALK fusion and mutation (CellTiter-Glo); format: cell-based; conditions: 3 days, CTG, read-out: EML-4-ALK-L1196M IC50
T1 construct: fused on or other part: Q9HC35 (Echinoderm microtubule-associated protein-like 4)
Description: (§4) • 1. […] Test information: • 2.1. Cell information: Cell lines containing ALK mutations in BaF3 were from WuXiAppTec: • Ba/F3-cell lines expressing ALK gene fusion and mutation • Ba/F3-EML-4-ALK-WT • Ba/F3-EML-4-ALK-L 1196M • 2.2.
(§5) Test results: The IC50 values of the compound DA and the control compound against BaF3 cells expressing EML-4-ALK-WT and EML-4-ALK-L1196M are shown in Table 22. • 4.

[8] = target: Ba/F3 cells expressing EGFR-C797S/L858R (Homo sapiens, UniProt P00533, C797S/L858R, cells depend on it); test: Cell anti-proliferation experiment 1, BaF3 cells expressing EGFR mutation (CellTiter-Glo); format: cell-based; conditions: 3 days, CTG, read-out: EGFR-C797S/L858R IC50
Experimental: as §7

[9] = target: T2, BaF3 EML-4-ALK-L1196M cell line (Homo sapiens, UniProt Q9UM73, L1196M, cells depend on it); test: Cell anti-proliferation experiment 4 (CCK-8); format: cell-based; conditions: BaF3 EML-4-ALK-L1196M cells, 72 hours
T2 construct: fused on or other part: Q9HC35 (Echinoderm microtubule-associated protein-like 4)
Experimental: • 1. […] Test materials • BaF3 EML-4-ALK-L1196M cell line, brand: KYinno, article number: KC-0102 • Cell Counting Kit-8 (CCK-8), brand: Targetmol, article number: C0005 • Multifunctional microplate reader, POLARstar Omega, brand: BMG LABTECH • 3. […] 10 μL of the compound diluted in gradient was added to the cell plate to give final concentrations of the compounds as 500, 166.67, 55.56, 18.52, 6.17, 2.06, 0.69, 0.23 and 0.08 nM. • d. […] Test results: The IC50 values of compound DA and compound 1 in the patent application WO2021073498A1 against BaF3 cells expressing EML-4-ALK-L1196M are shown in Table 23.

[10] = target: Ba/F3 cells expressing EGFR-WT (Homo sapiens, UniProt P00533); test: Cell anti-proliferation experiment 1, BaF3 EGFR-WT wild-type cell line (CellTiter-Glo); format: cell-based; conditions: read-out: EGFR-WT IC50
Experimental: as §6

[11] = Comparative experiment of hygroscopicity (Chinese Pharmacopoeia 2020); format: physicochemical
Description: The description of hygroscopic characteristics and the definition of hygroscopic weight gain are as follows: • Deliquescence: absorbs sufficient amount of water to form a liquid; • Very hygroscopic: the weight gain by hygroscopy is not less than 15%; • Hygroscopic: the weight gain by hygroscopy is less than 15% but not less than 2%; • Slightly hygroscopic: the weight gain by hygroscopy is less than 2% but not less than 0.2%; and
Not or almost not hygroscopic: the weight gain by hygroscopy is less than 0.2% from hygroscopicity.

[12] = target: Ba/F3 cells expressing EGFR-C797S/T790M/Del19 (Homo sapiens, UniProt P00533, T790M/C797S, cells depend on it, form not given); test: Cell anti-proliferation experiment 1, BaF3 cells expressing EGFR mutation (CellTiter-Glo); format: cell-based; conditions: read-out: EGFR-C797S/T790M/Del19 IC50
[13] = target: T3, BaF3 cells expressing EML-4-ALK-WT (Homo sapiens, UniProt Q9UM73); test: Cell anti-proliferation experiment 3, BaF3 cells with ALK fusion (CellTiter-Glo); format: cell-based; conditions: 3 days, CTG, read-out: EML-4-ALK-WT IC50
T3 construct: fused on or other part: Q9HC35 (Echinoderm microtubule-associated protein-like 4)
Description: as §4, §5

[14] = target: Ba/F3 cells expressing EGFR-T790M/Del19 (Homo sapiens, UniProt P00533, T790M, cells depend on it, form not given); test: Cell anti-proliferation experiment 1, BaF3 cells expressing EGFR mutation (CellTiter-Glo); format: cell-based; conditions: 3 days, CTG, read-out: EGFR-T790M/Del19 IC50

T2 sequence (Q9UM73 whole entry L1196M, the tested form may be a part): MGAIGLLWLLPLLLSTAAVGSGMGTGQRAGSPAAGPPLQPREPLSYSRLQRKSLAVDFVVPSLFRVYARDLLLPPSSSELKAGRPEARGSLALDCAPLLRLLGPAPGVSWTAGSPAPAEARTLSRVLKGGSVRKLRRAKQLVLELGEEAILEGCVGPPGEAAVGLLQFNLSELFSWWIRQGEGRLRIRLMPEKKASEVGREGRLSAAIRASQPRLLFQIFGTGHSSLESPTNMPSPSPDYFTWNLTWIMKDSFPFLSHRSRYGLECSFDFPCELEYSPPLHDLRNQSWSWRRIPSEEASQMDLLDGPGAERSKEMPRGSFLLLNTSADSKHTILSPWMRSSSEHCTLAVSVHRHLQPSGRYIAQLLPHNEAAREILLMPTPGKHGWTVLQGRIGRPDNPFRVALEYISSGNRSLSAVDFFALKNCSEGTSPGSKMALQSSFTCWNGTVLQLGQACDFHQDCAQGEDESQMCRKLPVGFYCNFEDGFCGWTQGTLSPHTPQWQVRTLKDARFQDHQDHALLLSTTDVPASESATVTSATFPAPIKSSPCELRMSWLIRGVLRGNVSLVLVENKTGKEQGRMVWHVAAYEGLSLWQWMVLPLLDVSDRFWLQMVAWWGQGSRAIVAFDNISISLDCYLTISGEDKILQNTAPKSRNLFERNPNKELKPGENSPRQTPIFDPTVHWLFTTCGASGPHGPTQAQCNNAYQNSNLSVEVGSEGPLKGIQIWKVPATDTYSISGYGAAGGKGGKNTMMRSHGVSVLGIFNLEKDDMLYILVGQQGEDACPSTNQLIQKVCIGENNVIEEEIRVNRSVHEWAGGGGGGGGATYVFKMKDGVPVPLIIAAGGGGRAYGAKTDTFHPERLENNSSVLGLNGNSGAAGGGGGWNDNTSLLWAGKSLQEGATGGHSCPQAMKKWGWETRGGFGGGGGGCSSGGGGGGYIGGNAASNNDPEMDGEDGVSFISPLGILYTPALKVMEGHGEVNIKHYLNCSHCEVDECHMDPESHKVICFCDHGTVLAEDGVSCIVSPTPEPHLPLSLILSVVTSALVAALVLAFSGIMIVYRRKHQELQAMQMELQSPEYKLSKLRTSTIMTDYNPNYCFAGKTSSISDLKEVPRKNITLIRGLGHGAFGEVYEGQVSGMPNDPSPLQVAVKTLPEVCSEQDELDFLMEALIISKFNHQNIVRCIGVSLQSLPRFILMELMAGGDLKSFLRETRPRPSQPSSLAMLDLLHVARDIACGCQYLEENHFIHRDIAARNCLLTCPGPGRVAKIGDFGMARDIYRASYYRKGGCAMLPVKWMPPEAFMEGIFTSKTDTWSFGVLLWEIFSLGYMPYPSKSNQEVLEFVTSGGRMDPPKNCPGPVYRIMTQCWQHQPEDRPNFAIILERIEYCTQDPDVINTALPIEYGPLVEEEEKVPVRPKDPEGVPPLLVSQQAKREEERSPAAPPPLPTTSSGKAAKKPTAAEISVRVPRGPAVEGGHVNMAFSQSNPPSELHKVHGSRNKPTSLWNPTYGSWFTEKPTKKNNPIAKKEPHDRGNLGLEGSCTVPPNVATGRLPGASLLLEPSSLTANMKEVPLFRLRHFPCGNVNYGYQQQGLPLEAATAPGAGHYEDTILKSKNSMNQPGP
Ba/F3 cells expressing EGFR-WT, sequence (P00533 whole entry, change not shown): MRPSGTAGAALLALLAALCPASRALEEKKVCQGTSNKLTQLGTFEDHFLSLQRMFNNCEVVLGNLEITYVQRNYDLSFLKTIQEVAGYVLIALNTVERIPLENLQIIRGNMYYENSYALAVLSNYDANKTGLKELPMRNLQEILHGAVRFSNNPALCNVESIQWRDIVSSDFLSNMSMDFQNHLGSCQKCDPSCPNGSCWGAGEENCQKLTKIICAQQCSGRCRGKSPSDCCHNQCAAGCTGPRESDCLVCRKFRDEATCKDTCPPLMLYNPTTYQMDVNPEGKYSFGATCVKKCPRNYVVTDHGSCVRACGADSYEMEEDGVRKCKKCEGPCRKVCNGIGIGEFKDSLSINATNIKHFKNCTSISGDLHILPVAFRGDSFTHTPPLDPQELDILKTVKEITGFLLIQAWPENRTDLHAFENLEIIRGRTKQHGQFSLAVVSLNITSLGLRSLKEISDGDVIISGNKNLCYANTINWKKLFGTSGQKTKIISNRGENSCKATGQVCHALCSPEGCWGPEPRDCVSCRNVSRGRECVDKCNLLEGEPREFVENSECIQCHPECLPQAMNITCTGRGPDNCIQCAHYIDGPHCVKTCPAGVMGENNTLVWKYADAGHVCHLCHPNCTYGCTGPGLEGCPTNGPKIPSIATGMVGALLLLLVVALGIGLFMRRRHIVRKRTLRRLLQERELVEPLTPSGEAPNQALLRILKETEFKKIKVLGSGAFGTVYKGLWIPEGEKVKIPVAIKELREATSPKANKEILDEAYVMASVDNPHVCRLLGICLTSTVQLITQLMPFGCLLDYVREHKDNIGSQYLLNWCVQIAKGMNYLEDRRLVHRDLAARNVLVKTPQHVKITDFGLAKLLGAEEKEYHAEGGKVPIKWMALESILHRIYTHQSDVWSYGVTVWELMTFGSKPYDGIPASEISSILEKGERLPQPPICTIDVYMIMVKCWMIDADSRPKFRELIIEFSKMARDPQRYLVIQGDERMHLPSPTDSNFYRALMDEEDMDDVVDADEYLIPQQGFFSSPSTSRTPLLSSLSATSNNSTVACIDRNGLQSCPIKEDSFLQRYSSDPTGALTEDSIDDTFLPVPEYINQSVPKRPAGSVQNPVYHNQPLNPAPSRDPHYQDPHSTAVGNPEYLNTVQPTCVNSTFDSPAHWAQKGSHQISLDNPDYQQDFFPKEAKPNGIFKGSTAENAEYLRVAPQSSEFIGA
Ba/F3 cells expressing EGFR-C797S/T790M/Del19, sequence (P00533 with tags, fused parts or gaps DEL746-750/T790M/C797S, form open): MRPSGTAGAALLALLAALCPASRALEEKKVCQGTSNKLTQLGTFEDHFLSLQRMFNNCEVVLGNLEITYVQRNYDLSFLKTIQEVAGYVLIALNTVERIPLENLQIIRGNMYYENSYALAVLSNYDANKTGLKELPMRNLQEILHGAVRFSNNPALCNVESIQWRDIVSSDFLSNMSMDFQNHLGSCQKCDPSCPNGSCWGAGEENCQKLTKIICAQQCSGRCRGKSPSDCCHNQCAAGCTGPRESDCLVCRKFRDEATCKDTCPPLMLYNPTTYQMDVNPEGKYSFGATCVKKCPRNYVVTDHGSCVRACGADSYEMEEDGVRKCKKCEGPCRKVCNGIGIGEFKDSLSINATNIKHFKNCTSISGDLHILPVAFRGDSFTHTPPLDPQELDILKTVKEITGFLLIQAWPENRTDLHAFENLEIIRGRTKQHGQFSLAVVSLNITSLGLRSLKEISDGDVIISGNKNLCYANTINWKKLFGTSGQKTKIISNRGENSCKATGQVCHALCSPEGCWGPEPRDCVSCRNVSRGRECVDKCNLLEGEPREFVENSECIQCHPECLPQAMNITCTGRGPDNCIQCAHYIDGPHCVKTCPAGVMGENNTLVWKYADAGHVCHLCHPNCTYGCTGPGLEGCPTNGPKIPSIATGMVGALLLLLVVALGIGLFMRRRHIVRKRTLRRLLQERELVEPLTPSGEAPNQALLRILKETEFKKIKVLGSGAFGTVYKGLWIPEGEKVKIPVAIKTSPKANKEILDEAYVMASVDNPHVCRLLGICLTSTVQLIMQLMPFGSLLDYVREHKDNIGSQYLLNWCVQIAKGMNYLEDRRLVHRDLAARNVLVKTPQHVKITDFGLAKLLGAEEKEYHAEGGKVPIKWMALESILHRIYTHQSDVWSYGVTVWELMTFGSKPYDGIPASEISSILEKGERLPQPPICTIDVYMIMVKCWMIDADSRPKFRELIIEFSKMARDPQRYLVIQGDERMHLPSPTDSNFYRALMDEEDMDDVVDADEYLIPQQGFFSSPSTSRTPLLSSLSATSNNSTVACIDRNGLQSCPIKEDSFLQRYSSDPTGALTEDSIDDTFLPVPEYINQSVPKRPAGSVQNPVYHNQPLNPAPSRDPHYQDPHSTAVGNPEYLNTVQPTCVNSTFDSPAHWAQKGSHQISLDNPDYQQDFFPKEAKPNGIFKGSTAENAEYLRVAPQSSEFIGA
T3 sequence (Q9UM73 whole entry, change not shown, the tested form may be a part): as the sequence (Q9UM73 whole entry L1196M, the tested form may be a part) above, with M1196L counted along it
T1 sequence (Q9UM73 whole entry L1196M, the tested form may be a part): as the sequence (Q9UM73 whole entry L1196M, the tested form may be a part) above

**Q.** For `COc1cc(N2CCC(N3CCN(C)CC3)CC2)c(C)cc1Nc1ncc(Br)c(Nc2ccc(C)cc2P(C)(C)=O)n1` [Compound DA, (2-((5-Bromo-2-((2-methoxy-5-methyl-4-(4-(4-methylpiperazin-1-yl)piperidin-1-yl)phenyl)amino)pyrimidin-4-yl)amino)-5-methylphenyl)dimethylphosphorus oxide], which “Solubility for 24 h” value (Solubility test) is on record?
**A.** Its value is 2110 µg/mL.

**Q.** And the GI50 [1]?
**A.** The GI50 was 0.0481 µM.

**Q.** What about the GI50 [2] of the same compound?
**A.** Its GI50 is 0.0641 µM.

**Q.** What about the GI50 [3] of the same compound?
**A.** Its GI50 is 0.0156 µM.

**Q.** What about the GI50 [4] of the same compound?
**A.** Its GI50 is 0.0128 µM.

**Q.** What about the GI50 [5] of the same compound?
**A.** The GI50 was 0.0484 µM.

**Q.** And the GI50 [6]?
**A.** Its GI50 is 0.0225 µM.

**Q.** And the GI50 [7]?
**A.** The GI50 was 0.0131 µM.

**Q.** What about the GI50 [8] of the same compound?
**A.** Its GI50 is 0.0326 µM.

**Q.** What about the GI50 ([9]; CCK-8, first test, read-out: IC50 in the first test) of the same compound?
**A.** Its GI50 is 0.0151 µM.

**Q.** And the GI50 ([9]; CCK-8, second test, read-out: IC50 in the second test)?
**A.** The GI50 was 0.0104 µM.

**Q.** And the GI50 [10]?
**A.** Its GI50 is 1.26 µM.

**Q.** What about the Hygroscopicity ([11]; class by weight gain after 24 h) of the same compound?
**A.** The Hygroscopicity was “Hygroscopic (the weight gain by hygroscopy is less than 15% but not less than 2%)”.

**Q.** What about the “Weight gain % after 24 h” value ([11]; hygroscopicity test, 24 h) of the same compound?
**A.** The value was 3.78%.

**Q.** What about the GI50 [12] of the same compound?
**A.** The GI50 was 0.0165 µM.

**Q.** And the GI50 [13]?
**A.** The GI50 was 0.008 µM.

**Q.** And the GI50 [14]?
**A.** The GI50 was 0.0065 µM.
